Laboratory results from US11207320B2, “Compositions and methods for cancer expressing PDE3A or SLFN12” (The Broad Institute, Inc., priority 2015, dated 2021).

Legend:
Format in all cases: cell-based
HeLa cells [1] = experiment: Compound sensitivity testing in cell lines (48 h viability)
Protocol: 1500 NCI-H1734 or 1000 A549 cells were plated in a 384-well plate in 40 μl of RPMI supplemented with 10% Fetal Bovine Serum and 1% Pen/Strep. 24 hours after plating, a compound-library of 1924 small molecules was added at a concentration of 10 μM. Staurosporine was used a positive control for cytotoxicity at a concentration of 10 μM, and DMSO was used a negative control at a concentration of 1%. All compounds were incubated for 48 hours with indicated small molecules. After 48 hours, 384-well plates were removed from the incubator and allowed to cool to room temperature for 20 minutes. Cell viability was assessed by adding 40 μl of a 25% CELLTITERGLO® (Promega) in PBS with a THERMO COMBI™ or multichannel-pipette and incubated for 10 minutes. The luminescence signal was read using a Perkin-Elmer EnVision. Viability percentage was calculated by normalizing to DMSO controls.
1000 HeLa (DMEM), 1000 A549 (RPMI), 500 MCF-7 (DMEM), 4000 PC3 (F12-K), 1000 NCI-H2122 (RPMI) or 1500 NCI-H1563 (RPMI) cells were plated in a 384-well plate in 40 μl of corresponding growth media supplemented with 10% Fetal Bovine Serum. 24 hours after plating, indicated compounds were added at indicated concentrations and incubated for 48 hours. Cell viability was assessed as described in Compound library screening in NCI-H1734 and A549 cell lines.

HeLa cells [2] = experiment: Caspase activity in HeLa cells (Caspase-Glo); conditions: DNMDP treatment 48 hours
Protocol: 1000 HeLa cells were plated in 384-well plate in 40 μl of corresponding growth media supplemented with 10% Fetal Bovine Serum. 24 hours after plating, indicated compounds were added at indicated concentrations and incubated for 48 hours. Caspase-Glo from Promega was added according to the manufacturers recommendations and luminescence was determined as described in Compound library screening in NCI-H1734 and A549 cell lines.

HeLa cells [3] = experiment: Knockdown of SLFN12 expression using shRNA and testing for drug sensitivity; conditions: 72 hours
From the text: FIG. 15A is a scatterplot showing mRNA robust multichip average (RMA) expression values for PDE3A and SLFN12 from the Cancer Cell Line Encyclopedia (CCLE) database (a detailed genetic characterization of a large panel of human cancer cell lines) with sensitive cell lines indicated (Barretina et al., Nature 483, 603-607, 2012). 21 sensitive cell lines were binned in three groups of 7 based on area under the curve (AUC) rank. FIG. 15B is a bar graph showing results of a Fisher's exact test on DNMDP sensitivity of cell lines with high expression of both SLFN12 and PDE3A (RMA Log 2>5) compared to other cell lines. The top half of the bar on the right indicates melanoma cell lines. FIG. 15C is a scatterplot showing mRNA RPKM+1 expression values for PDE3A and SLFN12 from RNA sequencing data. FIG. 15D is a bar graph showing qPCR expression changes of SLFN12 in HeLa cells transduced with shSLFN12 normalized to GAPDH. FIG. 15E is a plot showing viability of HeLa cells transduced with indicated shRNA reagents and treated with indicated concentrations of DNMDP for 72 hours.
Constructs expressing shRNAs targeting SLFN12, or the control vector, were packaged into lentiviruses and delivered into HeLa cells by viral transduction. […] SLFN12-targeting shRNAs were used, all of which were obtained from the TRC (CloneIDs: TRCN0000152141 and TRCN0000153520). […]

Structure (SMILES) | EC70 (HeLa cells [1]; HeLa) [µM] | EC50 (HeLa cells [1]; Homo sapiens, HeLa cervical carcinoma cells) [µM] | Caspase activity (caspase-sensitive luciferase assay) (HeLa cells [2]) | sensitivity after reduction of SLFN12 expression (shRNA) (HeLa cells [3]) | effect on HeLa cell viability / cytotoxicity (HeLa cells [1]; HeLa)
CCN(CC)c1ccc(C2=NNC(=O)CC2C)cc1[N+](=O)[O-] (centres unmarked) [DNMDP, 6-(4-(diethylamino)-3-nitrophenyl)-5-methyl-4,5-dihydropyridazin-3(2H)-one] | 0.03 | 0.01 to 0.1 | detected | decreased sensitivity | 
COc1cc2c(cc1OC)-c1c/c(=N\c3c(C)cc(C)cc3C)n(C)c(=O)n1CC2 [trequinsin, 9,10-dimethoxy-3-methyl-2-(2,4,6-trimethylphenyl)imino-6,7-dihydropyrimido[6,1-a]isoquinolin-4-one] |  |  |  |  | did not affect HeLa cell viability in any detectable way
